Data published in article PMC3265452 (PLoS Neglected Tropical Diseases, 2012).
Counter-ions that a name gives are not always drawn. Residues, ends and D or L forms follow the SMILES beside them. *: point of attachment. Cbz = O=C(OCc1ccccc1)*

These compounds were tested against AaDOP2 (Aedes aegypti, UniProt H6D5H2) (assay: AaDOP2 antagonist screen of the LOPAC1280 library (HEK-CRELuc-Aadop2 cells, luminescence)). Conditions: not given.
Type: cell-based

Chain of AaDOP2 (H6D5H2 1-476): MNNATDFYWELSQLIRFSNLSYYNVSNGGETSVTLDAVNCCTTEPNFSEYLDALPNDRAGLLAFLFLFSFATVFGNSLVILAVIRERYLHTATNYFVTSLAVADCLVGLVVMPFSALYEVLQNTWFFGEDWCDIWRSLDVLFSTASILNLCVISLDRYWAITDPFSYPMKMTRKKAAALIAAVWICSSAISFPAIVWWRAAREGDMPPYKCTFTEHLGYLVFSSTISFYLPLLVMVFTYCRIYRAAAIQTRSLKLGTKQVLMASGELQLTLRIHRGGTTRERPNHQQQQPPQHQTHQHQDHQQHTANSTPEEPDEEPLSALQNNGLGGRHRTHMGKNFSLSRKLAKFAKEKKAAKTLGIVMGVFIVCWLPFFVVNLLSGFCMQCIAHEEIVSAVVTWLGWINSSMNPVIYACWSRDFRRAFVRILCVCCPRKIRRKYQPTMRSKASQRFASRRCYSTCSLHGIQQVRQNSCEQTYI

Compound | Compound effect (percent receptor signaling in presence of test compound, relative lux units relative to the SCH23390 control)
O=[N+]([O-])c1cccc2cn[nH]c12 [Compound 868, 7-Nitroindazole] | 78
Cc1ccccc1N1C(=O)c2cc(S(N)(=O)=O)c(Cl)cc2NC1C (stereo not shown) [Compound 820, Metolazone] | 90
NC(N)=NCCCCN=C(N)N [Compound 15, Arcaine sulfate] | 122
CCCNC(=O)NS(=O)(=O)c1ccc(Cl)cc1 [Compound 231, Chlorpropamide] | 98
CC(=O)N[C@@H](CS)C(=O)O [Compound 81, N-Acetyl-L-Cysteine] | 101
CC(C)NC[C@H](O)COc1cccc2ccccc12 [Compound 983, (S)-Propranolol hydrochloride] | 90
Br.Br.N=C(N)SCCN [Compound 64, 2-(2-Aminoethyl)isothiourea dihydrobromide] | 104
CCc1cccc(N(C)C(N)=Nc2cccc3ccccc23)c1 [Compound 256, CNS-1102] | 107
CCCCNc1ccc(C(=O)OCCN(C)C)cc1 [Compound 1202, Tetracaine hydrochloride] | 78
CC(=O)Nc1nnc(S(N)(=O)=O)s1 [Compound 68, Acetazolamide] | 106
Cl.Cl.N=C(N)c1ccc(N)cc1 [Compound 79, 4-Aminobenzamidine dihydrochloride] | 106
O=[N+]([O-])c1ccc(CSc2ncnc3c2ncn3[C@@H]2O[C@H](CO)[C@@H](O)[C@H]2O)cc1 [Compound 844, S-(4-Nitrobenzyl)-6-thioinosine] | 93
NCC(CP(=O)(O)O)c1ccc(Cl)cc1 (stereo not shown) [Compound 1009, Phaclofen] | 71
NS(=O)(=O)Cc1noc2ccccc12 [Compound 1277, Zonisamide sodium] | 130
CCCN(CC1CC1)c1nc(C)nc(Nc2c(Cl)cc(Cl)cc2Cl)c1Cl [Compound 498, NBI 27914] | 90
COc1cc(/C=C(\C#N)C(=O)c2ccc(O)c(O)c2)cc(I)c1O [Compound 1206, I-OMe-Tyrphostin AG 538] | 96
C[N+](C)(C)CCOC(=O)CBr.[Br-] [Compound 204, Bromoacetylcholine bromide] | 91
O=c1[nH]c(=O)n([C@H]2C[C@H](O)[C@@H](CO)O2)cc1Br [Compound 174, 5-Bromo-2'-deoxyuridine] | 84
CCn1cc(C(=O)O)c(=O)c2ccc(Cc3ccccc3)nc21 [Compound 442, Amfonelic acid] | 96
CC(C)(C)NCC(O)c1ccc(O)c(CO)c1 (stereo not shown) [Compound 1117, Salbutamol] | 107
O=c1cc(-c2ccc(O)c(O)c2)oc2cc(O)cc(O)c12 [Compound 714, Luteolin] | 87
NC/C=C\C(=O)O [Compound 139, cis-4-Aminocrotonic acid] | 95

Compound | Compound effect (percent receptor signaling in presence of test compound, relative lux units relative to the SCH23390 control)
CCN(CC)CCCC(C)Nc1c2ccc(Cl)cc2nc2ccc(OC)cc12 (stereo not shown) [Compound 1033, Quinacrine dihydrochloride] | 94
CCN1CCC[C@H]1CNC(=O)c1cc(S(N)(=O)=O)ccc1OC [Compound 1109, (-)-Sulpiride] | 87
CN1CCCC1c1cccnc1.Cc1ccc(C(=O)OC(C(=O)O)C(OC(=O)c2ccc(C)cc2)C(=O)O)cc1 (stereo not drawn) [Compound 877, (+)-Nicotine (+)-di-p-toluoyl tartrate] | 80
COc1ccc2[nH]cc(CCN)c2c1.Cl [Compound 791, O-Methylserotonin hydrochloride] | 118
O=C1N=c2cc(Cl)c(Cl)cc2=NC1=O [Compound 458, 6,7-Dichloroquinoxaline-2,3-dione] | 129
C1CCc2nnnn2CC1 [Compound 958, Pentylenetetrazole] | 94
CCCN(CCC)CCc1cccc2c1CC(=O)N2 [Compound 1047, Ropinirole hydrochloride] | 103
CC(COc1ccc(/C=C/c2ccccc2)cc1)[N+](C)(C)C.[I-] (stereo not drawn) [Compound 1192, N,N,N-trimethyl-1-(4-trans-stilbenoxy)-2-propylammonium iodide] | 79
N#CC(C#N)=C(N)/C(C#N)=C/c1ccc(O)cc1 [Compound 1194, Tyrphostin AG 112] | 118
O=C(c1ccc(F)cc1)C1CCN(CCn2c(=O)[nH]c3ccccc3c2=O)CC1 [Compound 1128, Ketanserin tartrate] | 53
C=CC1=C(C)c2cc3[nH]c(cc4nc(cc5[nH]c(cc1n2)c(C)c5CCC(=O)O)C(CCC(=O)O)=C4C)c(C)c3C=C [Compound 978, Protoporphyrin IX disodium] | 86
CC(C)[C@H](NC(=O)OCc1ccccc1)C(=O)N[C@H](C=O)Cc1ccccc1 [Compound 793, MDL 28170] (Cbz-Val-Phe-aldehyde) | 96
CCCCCCCCCCCCCCCCOCC(COCC(F)(F)F)OP(=O)(O)OC (stereo not shown) [Compound 760, MJ33] | 77
N.N.[Cl][Pt][Cl] [Compound 940, Cisplatin] | 88
Nc1nccc2c1ncn2[C@@H]1O[C@H](CO)[C@@H](O)[C@H]1O [Compound 419, 3-deazaadenosine] | 59
Br.C=CCN1CCc2cc(O)c(O)cc2C(c2ccccc2)C1 (racemic) [Compound 1139, (±)-SKF 38393, N-allyl-, hydrobromide] | 70
Cc1cc(C(C)(C)C)c(O)c(C)c1CC1=NCCN1 [Compound 899, Oxymetazoline hydrochloride] | 84
N#C/C(=C\c1ccc(O)c(O)c1)C(=O)c1ccc(O)c(O)c1 [Compound 1207, Tyrphostin AG 538] | 75
CCCCCN(CCCCC)C(=O)C(CCC(=O)O)NC(=O)c1ccc(Cl)c(Cl)c1 (stereo not shown) [Compound 722, Lorglumide sodium] | 122
Cc1cn[nH]c1.Cl [Compound 737, 4-Methylpyrazole hydrochloride] | 111
N#Cc1c(-c2ccccc2)no[n+]1[O-] [Compound 925, 4-Phenyl-3-furoxancarbonitrile] | 93
CC(NC(C)(C)C)C(=O)c1cccc(Cl)c1 (stereo not shown) [Compound 201, Bupropion hydrochloride] | 77

Same assay, conditions: 10 µM compound, 300 nM dopamine, 2 hr; hit = compound effect <20

Compound | Compound effect (percent receptor signaling in presence of test compound, relative lux units relative to the SCH23390 control)
CC1=C(/C=C/C(C)=C/C=C/C(C)=C/C(=O)Nc2ccc(O)cc2)C(C)(C)CCC1 [Compound 599, Retinoic acid p-hydroxyanilide] | 88%
cis-(±)-8-OH-PBZI hydrobromide [Compound 918] | 88%
C[N+]1(CCCCC[N+]2(C)CCCC2)CCCC1.O=C([O-])C(O)C(O)C(=O)O.O=C([O-])C(O)C(O)C(=O)O [Compound 937, Pentolinium di[L(+)-tartrate]] | 94%
COc1cc(=O)n(C)c2c(OCC(O)C(C)(C)O)cccc12 (stereo not shown) [Compound 524, Foliosidine] | 190%
O=C(O)CCC(=O)N1CCC[C@H]1C(=O)O [Compound 1104, N-Succinyl-L-proline] | 111%
O=C(Nc1cc(C(=O)Nc2ccc(S(=O)(=O)[O-])cc2S(=O)(=O)[O-])cc(C(=O)Nc2ccc(S(=O)(=O)[O-])cc2S(=O)(=O)[O-])c1)Nc1cc(C(=O)Nc2ccc(S(=O)(=O)[O-])cc2S(=O)(=O)[O-])cc(C(=O)Nc2ccc(S(=O)(=O)[O-])cc2S(=O)(=O)[O-])c1.[Na+].[Na+].[Na+].[Na+].[Na+].[Na+].[Na+].[Na+] [Compound 855, NF449 octasodium salt] | 112%
Cl.Clc1cc(I)cc(Cl)c1NC1=NCCN1 [Compound 667, p-Iodoclonidine hydrochloride] | 83%
Br.CN1CCc2cc(O)c(O)cc2C(c2ccccc2)C1 (stereo not shown) [Compound 1093, SKF 75670 hydrobromide] | 39%
